One data set concerns the target T1, human 19S RP (Homo sapiens, UniProt P54578+Q9Y5K5).
T1 construct: purchased Boston Biochem E-366
The data set can be described thus: De-ubiquitinase activity assay, Ub-AMC cleavage by 19S RP. The conditions noted are these: read-out: IC50, DUB activity by detection of Ub-AMC cleavage. The format is biochemical.

Data set [1] deals with HCT-116 Bcl2+ colon carcinoma xenografts. The data set can be described thus: HCT-116 Bcl2+ colon carcinoma xenografts in nude mice, tumor onset. The format is in vivo. Conditions: 5 mg/kg 4-5 times weekly for 3 weeks; log-rank P=0.0136; vs vehicle. The protocol:
Animal experiments were conducted in full accordance with Swedish governmental statutory regulations on animal welfare under permission from local ethical committees. Animals were housed at a max of five per cage and provided with sterile water and food ad libitum. All mice were monitored and weighed daily. For the head and neck carcinoma model a 100-μl cell suspension containing 1×10^6 FaDu cells was injected subcutaneously into the right rear flank of the animals. After injection, tumor growth was measured daily with calipers and the tumor volume calculated by the formula L×W^2×0.44. When tumors had grown to a size of approximately 200 mm^3 (Day 0) mice were randomized to receive either vehicle (n=10) or b-AP15 5 mg/kg by subcutaneous injection s.c. (n=15) daily. […] Nineteen days after malignant cell injection all of the mice were killed and histopathological manifestations of liver, ovary (target organs for this model of tumor) were evaluated and compared between groups. […]
SCID mice bearing FaDu human tumor xenografts were randomized at tumor take (200 mm^3) and treated by daily subcutaneous injection with either vehicle (n=10) or 5 mg kg^−1 b-AP15 (n=15) for 10 days. […] Mice were treated with vehicle (n=6) or 5 mg kg^−1 b-AP15 (n=6) 4-5 times weekly for 3 weeks and monitored for tumor onset (log-rank, P=0.0136, hazard ratio=7.9). […]

Data set [2] relates to Lewis Lung Carcinoma (LLC) tumors. The data set is described as follows: Syngenic lung carcinoma (LLC) model. The format is in vivo, C57BL/6J mice. Conditions: 5 mg/kg i.p.
For data set [3], the system named is orthotopic breast carcinomas (4T1). The data set can be described thus: Orthotopic breast carcinoma (4T1) model. The format is in vivo, BALB/c mice. The conditions noted are these: 2.5 mg/kg i.p., 1 day on/3 days off.
The next data set deals with HCT-116 cells. The data set can be described thus: DNA damage markers, immunoblot. Conditions: cell cycle arrest observed. In kind it is cell-based. The protocol: Treatment with b-AP15 increased their levels in a dose dependent manner without altering the levels of ornithine decarboxylase 1 (ODC1), an ubiquitin-independent proteasome substrate (8).
HCT-116 cells were treated with b-AP15 or doxorubicin (100 nM, as a positive control for genotoxic stress for 18 h) (FIG. 5). Cell lysates were immuno-blotted with antibodies for phosphorylated p53 and histone H2 Ax marker for DNA damage of for total levels of p53 and β-actin as loading controls.

These results are taken from US20130079370A1, “Method for the Inhibition of Deubiquitinating Activity” (priority 2011, published 2013).

As for `C=CC(=O)N1C/C(=C\c2ccc([N+](=O)[O-])cc2)C(=O)/C(=C/c2ccc([N+](=O)[O-])cc2)C1` [b-AP15, (3E,5E)-3,5-bis[(4-nitrophenyl)methylidene]-1-(prop-2-enoyl)piperidin-4-one], the IC50 on human 19S RP is 2100 ± 411 nM. Further, the “hazard ratio, disease free survival” value in data set [1] stood at 7.9. The “difference in weight at the start and the endpoint between control and treated animals” value in data set [2] was “+2.1%”; in data set [3], “+5.8%”. Moreover, the “DNA damage markers phosphorylated p53 (Ser 15), H2AX (Ser 139)” value with HCT-116 cells was “not associated with increased levels of DNA damage markers”.
